From patent publication US20050239806A1, “Pyrrolopyrimidine derivatives and analogs and their use in the treatment and prevention of diseases” (Ambit Biosciences Corporation, priority 2004, published 2005)

What was measured:
[1] = target: T1, human EGFR (wildtype), EGFR(DKIN) (Homo sapiens, UniProt P00533); assay: Binding of wildtype-EGFR (T7 phage-displayed kinase competition binding)
T1 construct: Kd for EGFR(DKIN); made in house
Text: Methods for measuring binding affinities for interactions between small molecules and kinases including FLT3, c-KIT, ABL([…]) [a.k.a. ABL([…])], VEGFR-2 (a.k.a. KDR), and EGFR are described in detail in U.S. application Ser. No. 10/873,835, which is incorporated by reference herein in its entirety. The components of the assays include human kinases expressed as fusions to T7 bacteriophage particles and immobilized ligands that bind to the ATP site of the kinases. […] If the test compound binds the kinase it competes with the immobilized ligand and prevents binding to the solid support. […] The results are read out by quantitating the amount of fusion protein bound to the solid support, which is accomplished by either traditional phage plaque assays or by quantitative PCR (qPCR) using the phage genome as a template. […] The concentration of test molecule that reduces the number of phage bound to the solid support by 50% is equal to the Kd for the interaction between the kinase and the test molecule. Typically, data are collected for twelve concentrations of test compound and, the resultant binding curve is fit to a non-cooperative binding isotherm to calculate Kd. Described in the exemplary assays below is data from binding with varying kinases. […] The term “ND” represents non-determined values. […] The Kd for the interaction between the soluble compound (competitor) molecule and EGFR is equal to the concentration of soluble competitor molecule that causes a 50% reduction in the number of phage recovered in the eluate compared to a control sample lacking soluble competitor.

[2] = target: T2, EGFR (tyrosine 1173 phosphorylation) in A431 cells (Homo sapiens, UniProt P00533); assay: EGFR Autophosphorylation Inhibition Assay in Epidermoid Carcinoma Cell Line A431; type: cell-based; conditions: EGF-induced phosphorylation of tyrosine 1173
T2 construct: endogenous in cells; host or cells: A431
T2 sequence (P00533 25-1210): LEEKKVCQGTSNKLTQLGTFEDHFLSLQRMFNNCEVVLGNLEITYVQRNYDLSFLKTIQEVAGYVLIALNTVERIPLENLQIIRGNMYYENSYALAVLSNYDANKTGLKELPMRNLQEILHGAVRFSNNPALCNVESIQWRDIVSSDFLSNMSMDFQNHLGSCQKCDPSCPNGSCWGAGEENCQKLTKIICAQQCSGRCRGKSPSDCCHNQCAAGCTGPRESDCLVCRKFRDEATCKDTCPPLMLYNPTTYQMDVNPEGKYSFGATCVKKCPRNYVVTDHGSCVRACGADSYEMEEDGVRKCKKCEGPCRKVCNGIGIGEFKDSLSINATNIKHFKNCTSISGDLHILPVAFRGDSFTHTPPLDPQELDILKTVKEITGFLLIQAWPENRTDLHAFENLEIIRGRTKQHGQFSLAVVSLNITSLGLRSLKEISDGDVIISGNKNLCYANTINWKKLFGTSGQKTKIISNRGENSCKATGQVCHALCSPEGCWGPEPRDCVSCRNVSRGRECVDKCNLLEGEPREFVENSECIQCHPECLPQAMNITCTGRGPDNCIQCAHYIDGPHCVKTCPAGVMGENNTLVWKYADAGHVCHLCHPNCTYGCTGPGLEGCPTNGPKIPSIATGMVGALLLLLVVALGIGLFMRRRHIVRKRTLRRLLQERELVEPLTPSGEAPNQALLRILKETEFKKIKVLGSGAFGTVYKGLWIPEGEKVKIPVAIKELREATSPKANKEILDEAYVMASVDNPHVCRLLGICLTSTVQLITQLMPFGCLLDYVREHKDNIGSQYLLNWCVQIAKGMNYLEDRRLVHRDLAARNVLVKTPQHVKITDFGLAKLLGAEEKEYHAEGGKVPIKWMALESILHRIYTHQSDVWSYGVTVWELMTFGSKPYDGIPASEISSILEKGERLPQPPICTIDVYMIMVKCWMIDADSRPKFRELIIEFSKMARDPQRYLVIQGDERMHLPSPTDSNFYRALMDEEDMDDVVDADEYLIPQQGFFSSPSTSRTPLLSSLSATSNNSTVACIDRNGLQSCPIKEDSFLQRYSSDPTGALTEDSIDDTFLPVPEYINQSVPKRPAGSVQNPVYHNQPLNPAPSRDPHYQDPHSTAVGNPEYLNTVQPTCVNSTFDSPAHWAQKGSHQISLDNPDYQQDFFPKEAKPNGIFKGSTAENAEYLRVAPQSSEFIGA
Method: (§1) Tyrosine 1173 is a major autophosphorylation site resulting from activation of EGFR by epidermal growth factor (EGF). To determine the capacity of a compound to inhibit this phosphorylation activity of EGFR upon itself, the following methodology was used: 4×10^4 A431 cells/well in a 96-well culture plate or 3.6×10^5 A549 cells/well in a 24-well culture plate were cultured overnight at 37° C. in 5% CO2 in low serum culture medium (DMEM supplemented with 0.5% fetal calf serum, 4.500 mg/L glucose and 100 units/ml penicillin-streptomycin). After 16 hours, the cells were pre-incubated in eight serial 3-fold dilutions of test compound (3.3 μM-0.0017 μM) in addition to vehicle control (final concentration on DMSO vehicle was 1%) for two hours. Cells were stimulated by the addition of 5 ng/ml of EGF for five minutes. Cells were then washed with cold phosphate buffered saline (PBS), and incubated for 30 minutes at 4° C. in lysis buffer. Subsequently, the samples were centrifuged at 6000× RCF for 15 minutes, and the level of phosphorylation of EGFR tyrosine 1173 was measured using a sandwich enzyme-linked immunosorbent assay following the manufacturer's recommended protocols (Biosource, Camarillo, Calif.). Total EGFR levels were also measured in the same manner to control for protein level differences. The reported values are those concentrations of compound required to inhibit EGF-induced phosphorylation of tyrosine 1173 by 50%.

[3] = target: T3, EGFR (tyrosine 1173 phosphorylation) in Lung Cancer Cell Line A459 (Homo sapiens, UniProt P00533); assay: EGFR Autophosphorylation Inhibition Assay in Lung Cancer Cell Line A459; type: cell-based; conditions: EGF-induced phosphorylation of tyrosine 1173
T3 construct: endogenous in cells
T3 sequence (P00533 25-1210): as above
Method: as §1

T1 sequence (P00533 712-979 limits assumed): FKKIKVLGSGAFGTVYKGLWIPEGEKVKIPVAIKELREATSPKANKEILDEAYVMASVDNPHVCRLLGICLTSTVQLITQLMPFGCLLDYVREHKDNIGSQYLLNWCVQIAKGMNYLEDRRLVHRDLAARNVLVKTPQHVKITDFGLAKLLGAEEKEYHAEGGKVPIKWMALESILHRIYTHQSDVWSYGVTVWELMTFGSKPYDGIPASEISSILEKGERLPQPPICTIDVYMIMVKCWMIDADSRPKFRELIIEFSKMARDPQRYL

Row | Kd [1] | IC50 [2] | IC50 [3] | SMILES
1 | > 10 µM | – | – | COc1ccc(-c2cc3c(OCc4cccc(C)c4)ncnc3[nH]2)cc1 [Compound C3]
2 | 0.1 to 1 µM | – | – | COc1ccc(-c2cc3c(OCc4ccccc4)ncnc3[nH]2)cc1 [Compound C4]
3 | 0.1 to 1 µM | – | – | COc1ccc(-c2cc3c(Oc4cccc(Br)c4)ncnc3[nH]2)cc1 [Compound D3]
4 | < 0.1 µM | 0.1 to 1 µM | – | COc1ccc(-c2cc3c(Oc4cccc(Cl)c4)ncnc3[nH]2)cc1 [Compound D5]
5 | < 0.1 µM | – | – | COc1ccc(-c2cc3c(Oc4cccc(C)c4)ncnc3[nH]2)cc1 [Compound D8]
6 | 0.1 to 1 µM | – | – | COc1cccc(-c2cc3c(Oc4cc(C)cc(C)c4)ncnc3[nH]2)c1 [Compound D18]
7 | < 0.1 µM | 0.1 to 1 µM | 1 to 10 µM | COc1cccc(-c2cc3c(Oc4cccc(Br)c4)ncnc3[nH]2)c1 [Compound D19]
8 | 0.1 to 1 µM | – | – | COc1cccc(-c2cc3c(Oc4cccc(F)c4)ncnc3[nH]2)c1 [Compound D20]
9 | 0.1 to 1 µM | – | – | COc1cccc(-c2cc3c(Oc4cccc(C(F)(F)F)c4)ncnc3[nH]2)c1 [Compound D21]
10 | 0.1 to 1 µM | 0.1 to 1 µM | – | Oc1ccc(-c2cc3c(Oc4cc(Cl)cc(Cl)c4)ncnc3[nH]2)cc1 [Compound E1, 4-[4-(3,5-Dichloro-phenoxy)-7H-pyrrolo[2,3-d]pyrimidin-6-yl]-phenol]
11 | < 0.1 µM | – | – | Cc1cc(C)cc(Oc2ncnc3[nH]c(-c4ccc(O)cc4)cc23)c1 [Compound E2]
12 | 0.1 to 1 µM | – | – | COc1cccc(Oc2ncnc3[nH]c(-c4ccc(O)cc4)cc23)c1 [Compound E4]
13 | 0.1 to 1 µM | – | – | Clc1ccc(Sc2ncnc3[nH]ccc23)cc1Cl [Compound F3]
14 | 0.1 to 1 µM | – | – | COc1ccc(-c2cc3c(Sc4ccc(Cl)c(Cl)c4)ncnc3[nH]2)cc1 [Compound J3]
15 | < 0.1 µM | 1 to 10 µM | 1 to 10 µM | COc1ccc(-c2cc3c(Sc4cccc(Cl)c4)ncnc3[nH]2)cc1 [Compound J7]
16 | < 0.1 µM | 1 to 10 µM | 1 to 10 µM | COc1ccc(-c2cc3c(Sc4cccc(F)c4)ncnc3[nH]2)cc1 [Compound J8]
17 | 0.1 to 1 µM | – | – | COc1ccc(-c2cc3c(Sc4cccc(OC)c4)ncnc3[nH]2)cc1 [Compound J9]
18 | 0.1 to 1 µM | – | – | COc1ccc(-c2cc3c(Sc4cccc(C)c4)ncnc3[nH]2)cc1 [Compound J10]
19 | 0.1 to 1 µM | – | – | COc1ccc(-c2cc3c(Sc4cccc(C(F)(F)F)c4)ncnc3[nH]2)cc1 [Compound J11]

Row | Kd [1] | IC50 [2] | IC50 [3] | SMILES
20 | < 0.1 µM | 1 to 10 µM | – | COc1ccc(-c2cc3c(Sc4ccc(F)cc4)ncnc3[nH]2)cc1 [Compound J13]
21 | < 0.1 µM | 1 to 10 µM | 1 to 10 µM | COc1ccc(-c2cc3c(Sc4ccc(C)cc4)ncnc3[nH]2)cc1 [Compound J14]
22 | 0.1 to 1 µM | – | – | COc1ccc(-c2cc3c(Sc4ccccc4)ncnc3[nH]2)cc1 [Compound J16]
23 | 0.1 to 1 µM | – | – | Cc1ccc(-c2cc3c(Sc4cccc(F)c4)ncnc3[nH]2)cc1 [Compound J17]
24 | 0.1 to 1 µM | – | – | Cc1cc(C)cc(Sc2ncnc3[nH]c(-c4ccc(O)cc4)cc23)c1 [Compound J18]
25 | < 0.1 µM | 1 to 10 µM | 1 to 10 µM | COc1cccc(-c2cc3c(Sc4ccccc4Cl)ncnc3[nH]2)c1 [Compound J19]
26 | < 0.1 µM | 1 to 10 µM | – | CCc1ccccc1Sc1ncnc2[nH]c(-c3cccc(OC)c3)cc12 [Compound J20]
27 | > 10 µM | – | – | COc1cccc(-c2cc3c(Sc4cc(Cl)cc(Cl)c4)ncnc3[nH]2)c1 [Compound J21]
28 | 0.1 to 1 µM | – | – | COc1cccc(-c2cc3c(Sc4cc(C)cc(C)c4)ncnc3[nH]2)c1 [Compound J22]
29 | < 0.1 µM | 0.1 to 1 µM | 0.1 to 1 µM | COc1cccc(-c2cc3c(Sc4cccc(Br)c4)ncnc3[nH]2)c1 [Compound J23]
30 | < 0.1 µM | 0.1 to 1 µM | 0.1 to 1 µM | COc1cccc(-c2cc3c(Sc4cccc(Cl)c4)ncnc3[nH]2)c1 [Compound J24]
31 | < 0.1 µM | 0.1 to 1 µM | 1 to 10 µM | COc1cccc(-c2cc3c(Sc4cccc(F)c4)ncnc3[nH]2)c1 [Compound J25]
32 | 0.1 to 1 µM | – | – | COc1cccc(Sc2ncnc3[nH]c(-c4cccc(OC)c4)cc23)c1 [Compound J26]
33 | 0.1 to 1 µM | 0.1 to 1 µM | 1 to 10 µM | COc1cccc(-c2cc3c(Sc4cccc(C)c4)ncnc3[nH]2)c1 [Compound J27]
34 | < 0.1 µM | 1 to 10 µM | – | COc1cccc(-c2cc3c(Sc4cccc(C(F)(F)F)c4)ncnc3[nH]2)c1 [Compound J28]
35 | < 0.1 µM | 1 to 10 µM | 1 to 10 µM | COc1cccc(-c2cc3c(Sc4ccc(F)cc4)ncnc3[nH]2)c1 [Compound J30]
36 | < 0.1 µM | 1 to 10 µM | > 10 µM | COc1cccc(-c2cc3c(Sc4ccc(C)cc4)ncnc3[nH]2)c1 [Compound J31]
37 | 1 to 10 µM | – | – | COc1cccc(-c2cc3c(Sc4ccc(C(C)(C)C)cc4)ncnc3[nH]2)c1 [Compound J32]
38 | < 0.1 µM | 0.1 to 1 µM | 1 to 10 µM | COc1cccc(-c2cc3c(Sc4ccccc4)ncnc3[nH]2)c1 [Compound J33]

Row | Kd [1] | IC50 [2] | IC50 [3] | SMILES
39 | < 0.1 µM | 0.1 to 1 µM | – | COc1ccc(-c2cc3c(Sc4ccc(F)c(Cl)c4)ncnc3[nH]2)cc1 [Compound J37]
40 | < 0.1 µM | 0.1 to 1 µM | – | Brc1cccc(Sc2ncnc3c2[nH]c2ccccc23)c1 [Compound K8]
41 | < 0.1 µM | 0.1 to 1 µM | 0.1 to 1 µM | Clc1cccc(Sc2ncnc3c2[nH]c2ccccc23)c1 [Compound K10]
42 | 0.1 to 1 µM | – | – | Cc1cccc(Sc2ncnc3c2[nH]c2ccccc23)c1 [Compound K12]
43 | < 0.1 µM | 0.1 to 1 µM | – | Clc1ccc(Sc2ncnc3c2[nH]c2ccccc23)cc1 [Compound K13]
44 | < 0.1 µM | 0.1 to 1 µM | 0.1 to 1 µM | Fc1ccc(Sc2ncnc3c2[nH]c2ccccc23)cc1 [Compound K14]
45 | < 0.1 µM | 0.1 to 1 µM | – | Cc1ccc(Sc2ncnc3c2[nH]c2ccccc23)cc1 [Compound K15]
46 | < 0.1 µM | – | – | c1ccc(Sc2ncnc3c2[nH]c2ccccc23)cc1 [Compound K17]
47 | 1 to 10 µM | – | – | Oc1ccc(-c2cc3c(SCCc4ccccc4)ncnc3[nH]2)cc1 [Compound L1, 4-(4-Phenethylsulfanyl-7H-pyrrolo[2,3-d]pyrimidin-6-yl)-phenol]
48 | < 0.1 µM | < 0.1 µM | 1 to 10 µM | Oc1ccc(-c2cc3c(Sc4cccc(F)c4)ncnc3[nH]2)cc1 [Compound L3]
49 | 0.1 to 1 µM | – | – | COc1cccc(Sc2ncnc3[nH]c(-c4ccc(O)cc4)cc23)c1 [Compound L4]
50 | < 0.1 µM | < 0.1 µM | 1 to 10 µM | Cc1cccc(Sc2ncnc3[nH]c(-c4ccc(O)cc4)cc23)c1 [Compound L5]
51 | < 0.1 µM | 0.1 to 1 µM | 1 to 10 µM | Oc1ccc(-c2cc3c(Sc4ccc(Cl)cc4)ncnc3[nH]2)cc1 [Compound L7]
52 | < 0.1 µM | < 0.1 µM | 1 to 10 µM | Oc1ccc(-c2cc3c(Sc4ccc(F)cc4)ncnc3[nH]2)cc1 [Compound L8]
53 | < 0.1 µM | 0.1 to 1 µM | 1 to 10 µM | Cc1ccc(Sc2ncnc3[nH]c(-c4ccc(O)cc4)cc23)cc1 [Compound L9]
54 | 0.1 to 1 µM | – | – | COc1ccc(Sc2ncnc3[nH]c(-c4ccc(O)cc4)cc23)cc1 [Compound L11]
55 | 0.1 to 1 µM | – | – | Oc1cccc(Sc2ncnc3oc(-c4ccccc4)c(-c4ccccc4)c23)c1 [Compound N4]
56 | 0.1 to 1 µM | – | – | COc1cccc(Sc2ncnc3oc(-c4ccccc4)c(-c4ccccc4)c23)c1 [Compound N12]
